Test results taken from patent US12642796B2, “Method and device of treating chronic kidney disease-associated pruritus” (Avior, Inc., priority 2018, dated 2026).
“And” between values parts separate entries of the source, which are not always exact repeats. Equal values may be shown once.

Key:
C57BL mice = experiment: Effect of nalmefene on SP-induced scratching behavior (Example 2); type: in vivo, mouse; conditions: nalmefene SC 1 hour prior to SP ID 33.7 μg; 30 and 60 minutes after SP, FIG. 3
Experimental: Scratching behavior was monitored for 30 and 60 minutes after SP injection. Controls included mice that received PBS instead of SP (N=6, Group 5) and mice that received a placebo dose of PBS and ID dose of SP (N=4, Group 6).

C57BL/6 mice = experiment: SP and nalmefene injection, scratches Groups 10-12, 0-60 minutes (Example 3); type: in vivo, mouse
Experimental: Fifteen male C57BL/6 mice received a single intradermal (ID) bolus injection of substance P (SP) or PBS. Group 10 (N=6) received a single 50 μL injection of PBS. Group 11 (N=4) received SP in PBS at a dose of 0.5 mM/50 μl. […] Scratching behavior was video recorded and assessed.
Groups 10 and 11: All mice were placed in a clear cylindrical enclosure 60 minutes prior to testing to acclimate. An ID bolus injection of SP in PBS was administered. Recording began immediately following injection of SP and recorded for 60 minutes.
Group 12: All mice were placed in clear cylinder enclosures for 60 minutes prior to testing to acclimate. A SC bolus injection of nalmefene was administered. 30 minutes after the nalmefene injection, an ID bolus injection of SP in PBS was administered. Recording began immediately following injection of SP and recorded for 60 minutes.
Animals in Groups 10-12 were acclimated for 1 hour prior to recording. Behavioral recording lasted for 60 minutes (T0-T60). 6 animals were dosed for Group 12 but only 5 animals were tested due to one animal being excluded as an outlier due to no response to SP injection.
The number of scratches per 10-minute time interval for Groups 10-12 is given below in Table 3. The data is also shown graphically in FIG. 4.
The number of scratches per 0-30 minute and 30-60 minute time intervals is given below in Table 4 for Group 10 (PBS), Group 11 (0.5 mM SP), and Group 12 (0.75 mg nalmefene). The data is also shown graphically in FIG. 5.

[1] = Group 12, Nalmefene 0.75 mg SC before SP 0.5 mM ID, 0-30 min
[2] = Group 12, Nalmefene 0.75 mg SC before SP 0.5 mM ID, 30-60 min
[3] = Group 12, nalmefene 0.075 mg/75 μL SC 30 min prior to SP 0.5 mM/50 μL ID, 0-10 min
[4] = Group 12, nalmefene 0.075 mg/75 μL SC 30 min prior to SP 0.5 mM/50 μL ID, 10-20 min
[5] = Group 12, nalmefene 0.075 mg/75 μL SC 30 min prior to SP 0.5 mM/50 μL ID, 20-30 min
[6] = Group 12, nalmefene 0.075 mg/75 μL SC 30 min prior to SP 0.5 mM/50 μL ID, 30-40 min
[7] = Group 12, nalmefene 0.075 mg/75 μL SC 30 min prior to SP 0.5 mM/50 μL ID, 40-50 min
[8] = Group 12, nalmefene 0.075 mg/75 μL SC 30 min prior to SP 0.5 mM/50 μL ID, 50-60 min

C=C1CC[C@@]2(O)[C@H]3Cc4ccc(O)c5c4[C@@]2(CCN3CC2CC2)[C@H]1O5 [Nalmefene, 6-methylene-6-deoxy-N-cyclopropylmethyl-14 hydroxydihydronormorphine]
pruritogenic response to SP (C57BL mice): completely mitigated
Scratches, Avg. (C57BL/6 mice; [1]): 8.6
Scratches, individual animals (C57BL/6 mice; [1]): 10 and 29 and 0 (2×) and 4
Scratches, Avg. (C57BL/6 mice; [2]): 2.9
Scratches, individual animals (C57BL/6 mice; [2]): 1 and 5 and 0 (2×) and 8.5
Scratches, Avg. (C57BL/6 mice; [3]): 2
Scratches, individual animals (C57BL/6 mice; [3]): 10 and 0 (4×)
Scratches, Avg. (C57BL/6 mice; [4]): 3
Scratches, individual animals (C57BL/6 mice; [4]): 0 (3×) and 13 and 2
Scratches, Avg. (C57BL/6 mice; [5]): 3.6
Scratches, individual animals (C57BL/6 mice; [5]): 0 (3×) and 16 and 2
Scratches, Avg. (C57BL/6 mice; [6]): 1
Scratches, individual animals (C57BL/6 mice; [6]): 0 (4×) and 5
Scratches, Avg. (C57BL/6 mice; [7]): 1.8
Scratches, individual animals (C57BL/6 mice; [7]): 0.5 and 5 and 0 (2×) and 3.5
Scratches, Avg. (C57BL/6 mice; [8]): 0.1
Scratches, individual animals (C57BL/6 mice; [8]): 0.5 and 0 (4×)
ability to control scratching behavior, and by extension pruritus (C57BL/6 mice; Group 12 vs Groups 10 and 11, 0-60 min): maintained over the hour
